Assay [1] concerns the target alpha1-adrenoceptor. The assay can be described thus: [3H]-Prazosin binding assay (affinity for alpha1-adrenoceptors). The settings on record: partially purified rat brain membranes; 0.2 nM [3H]-prazosin, 60 min, 25° C. Here is the method:
The [^3 H]-prazosin binding assay was carried out according to the method described by Timmermans, P. B. M. W. M., Schoop, A. M. C., and Van Zwieten, P. A., Biochem. Pharmacol., 31, 899-905, (1982). The reaction mixture contained partially purified rat brain membranes (source of alpha1 -adrenoceptors), 0.2 nM [^3 H]-prazosin with or without potential displacer in Tris buffer. The mixture was incubated for 60 minutes at 25° C. and subsequently terminated by rapid filtration through glass fiber-filter. Receptor-bound [^3 H]-prazosin trapped in the filter was quantitated by scintillation counting. The inhibitory concentration (IC50) of potential displacer which gives 50% displacement of the total specifically bound [^3 H]-prazosin is presented as a measure of the affinity of such compound for the alpha1 -adrenoceptor.

Assay [2] has as its system guinea pig left atria. The assay can be described thus: Positive inotropic effect in guinea pig left atria. The settings on record: Cavia porcellus; for EC50: concentration that increases developed tension (DT) by 50% above the control DT, left atria paced at 2 Hz, 37° C.; for Emax: ratio of the maximum effect of the test compound to that of Bay K8644, read-out: Intrinsic Activity. Here is the method: Guinea pigs are killed by cervical dislocation. The left atria are removed and mounted at 1 gm resting tension in tissue baths containing oxygenated Krebs bicarbonate solution which is kept at 37° C. The left atria are electrically paced at 2 Hz with square wave pulses of 1 msec duration. The voltage is set at 1.5×threshold level.
After a one hour equilibration period, control values for developed tension (DT, gm) are recorded. Test compounds are then added to the baths, in a cumulative manner to a maximum concentration of 10^-4, to obtain a concentration-response curve. Treatment values of DT are obtained after the drug effect has reached a plateau and the exposure time for each concentration is 5-8 minutes. Percent change of the treatment value from the control value is calculated at each concentration of the test compound.

The target of assay [3] is T1, Ca^2+ channel (Rattus norvegicus, UniProt P22002).
T1 construct: rat cardiac microsomes (source of Ca^2+ channels); from tissue; host or cells: rat cardiac microsomes
T1 sequence (P22002 whole entry, other chains not shown): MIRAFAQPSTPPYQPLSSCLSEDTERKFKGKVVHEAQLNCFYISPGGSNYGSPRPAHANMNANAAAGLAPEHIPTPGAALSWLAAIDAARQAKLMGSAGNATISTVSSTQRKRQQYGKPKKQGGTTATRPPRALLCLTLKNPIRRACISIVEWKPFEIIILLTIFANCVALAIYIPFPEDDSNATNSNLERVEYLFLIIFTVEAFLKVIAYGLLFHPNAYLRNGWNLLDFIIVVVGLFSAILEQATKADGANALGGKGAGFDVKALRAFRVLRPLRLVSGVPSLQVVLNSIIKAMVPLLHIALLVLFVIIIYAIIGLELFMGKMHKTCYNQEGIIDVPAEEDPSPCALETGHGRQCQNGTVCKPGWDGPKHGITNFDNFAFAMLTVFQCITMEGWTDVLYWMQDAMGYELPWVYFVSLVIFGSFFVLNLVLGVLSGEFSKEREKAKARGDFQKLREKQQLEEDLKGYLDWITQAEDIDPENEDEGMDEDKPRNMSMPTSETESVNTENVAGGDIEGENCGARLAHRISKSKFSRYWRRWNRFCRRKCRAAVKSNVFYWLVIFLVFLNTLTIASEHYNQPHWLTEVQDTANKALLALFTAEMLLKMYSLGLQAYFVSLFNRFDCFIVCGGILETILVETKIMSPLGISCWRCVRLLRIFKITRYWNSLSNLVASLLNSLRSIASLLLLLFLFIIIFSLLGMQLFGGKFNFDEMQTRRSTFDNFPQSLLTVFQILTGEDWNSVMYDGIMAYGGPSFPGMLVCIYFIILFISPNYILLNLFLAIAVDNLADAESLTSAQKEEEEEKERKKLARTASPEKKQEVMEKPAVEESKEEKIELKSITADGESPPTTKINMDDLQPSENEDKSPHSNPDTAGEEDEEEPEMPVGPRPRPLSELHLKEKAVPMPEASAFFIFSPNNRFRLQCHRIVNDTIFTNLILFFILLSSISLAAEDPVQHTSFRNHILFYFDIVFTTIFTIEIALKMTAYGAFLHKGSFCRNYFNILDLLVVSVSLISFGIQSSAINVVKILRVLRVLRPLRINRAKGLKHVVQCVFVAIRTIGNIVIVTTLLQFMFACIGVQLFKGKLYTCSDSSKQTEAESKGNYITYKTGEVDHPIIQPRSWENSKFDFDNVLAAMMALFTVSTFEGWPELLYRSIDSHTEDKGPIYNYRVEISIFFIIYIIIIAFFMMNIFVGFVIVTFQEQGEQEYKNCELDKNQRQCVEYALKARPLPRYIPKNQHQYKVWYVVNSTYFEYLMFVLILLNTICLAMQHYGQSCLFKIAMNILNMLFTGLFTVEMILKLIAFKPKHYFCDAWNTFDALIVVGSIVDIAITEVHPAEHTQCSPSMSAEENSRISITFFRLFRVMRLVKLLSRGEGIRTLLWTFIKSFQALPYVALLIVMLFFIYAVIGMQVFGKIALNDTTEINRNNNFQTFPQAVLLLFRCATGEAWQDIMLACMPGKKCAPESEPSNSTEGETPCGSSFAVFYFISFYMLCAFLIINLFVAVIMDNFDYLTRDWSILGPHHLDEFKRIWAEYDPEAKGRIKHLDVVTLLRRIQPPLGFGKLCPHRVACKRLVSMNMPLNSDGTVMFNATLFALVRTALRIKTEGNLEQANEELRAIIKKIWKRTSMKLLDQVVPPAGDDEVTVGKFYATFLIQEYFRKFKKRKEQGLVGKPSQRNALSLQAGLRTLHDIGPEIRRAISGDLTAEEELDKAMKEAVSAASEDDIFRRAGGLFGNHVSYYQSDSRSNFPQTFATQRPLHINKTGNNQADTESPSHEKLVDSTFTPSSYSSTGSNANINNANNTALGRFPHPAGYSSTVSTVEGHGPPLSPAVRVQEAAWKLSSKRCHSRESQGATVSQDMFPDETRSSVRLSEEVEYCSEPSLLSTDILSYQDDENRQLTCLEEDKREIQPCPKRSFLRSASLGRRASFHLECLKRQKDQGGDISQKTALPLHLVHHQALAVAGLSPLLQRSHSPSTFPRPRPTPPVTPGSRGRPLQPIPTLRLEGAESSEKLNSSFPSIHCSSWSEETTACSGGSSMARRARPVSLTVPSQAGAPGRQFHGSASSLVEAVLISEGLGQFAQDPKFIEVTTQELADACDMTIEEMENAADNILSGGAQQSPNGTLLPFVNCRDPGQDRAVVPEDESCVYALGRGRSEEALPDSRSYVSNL
T1 sequence (P54290 25-944 partner limits assumed, other chains not shown): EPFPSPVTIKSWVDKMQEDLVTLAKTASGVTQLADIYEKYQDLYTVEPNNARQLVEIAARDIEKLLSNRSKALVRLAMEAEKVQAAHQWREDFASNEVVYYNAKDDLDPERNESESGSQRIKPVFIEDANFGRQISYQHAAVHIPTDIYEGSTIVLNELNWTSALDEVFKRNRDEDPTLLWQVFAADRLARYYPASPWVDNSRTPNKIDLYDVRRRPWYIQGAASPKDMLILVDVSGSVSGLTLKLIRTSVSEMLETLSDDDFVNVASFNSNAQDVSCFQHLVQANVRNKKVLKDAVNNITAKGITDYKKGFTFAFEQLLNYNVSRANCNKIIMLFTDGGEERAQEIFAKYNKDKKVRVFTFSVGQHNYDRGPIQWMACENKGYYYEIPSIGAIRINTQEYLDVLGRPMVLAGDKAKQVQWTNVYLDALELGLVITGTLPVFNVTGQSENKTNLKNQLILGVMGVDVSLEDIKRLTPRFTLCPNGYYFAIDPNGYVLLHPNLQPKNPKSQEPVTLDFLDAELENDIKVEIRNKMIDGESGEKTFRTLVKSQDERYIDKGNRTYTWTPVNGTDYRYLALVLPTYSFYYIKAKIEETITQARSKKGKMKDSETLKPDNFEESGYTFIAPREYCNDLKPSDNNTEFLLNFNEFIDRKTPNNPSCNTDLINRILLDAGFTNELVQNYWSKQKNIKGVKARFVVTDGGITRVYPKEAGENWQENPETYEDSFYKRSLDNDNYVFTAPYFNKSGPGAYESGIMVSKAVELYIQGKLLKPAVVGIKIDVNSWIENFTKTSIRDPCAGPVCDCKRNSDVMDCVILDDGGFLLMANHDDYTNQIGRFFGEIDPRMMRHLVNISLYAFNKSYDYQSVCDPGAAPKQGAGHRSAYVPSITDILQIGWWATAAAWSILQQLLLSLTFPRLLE
T1 sequence (P54290 945-1091 partner limits assumed, other chains not shown): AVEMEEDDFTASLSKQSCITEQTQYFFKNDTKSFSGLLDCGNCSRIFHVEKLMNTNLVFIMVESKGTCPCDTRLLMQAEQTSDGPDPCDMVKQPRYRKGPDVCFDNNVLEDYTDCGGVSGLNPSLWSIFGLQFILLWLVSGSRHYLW
The assay can be described thus: [3H]-Nitrendipine binding assay (affinity for calcium channels). The settings on record: rat cardiac microsomes; 0.5 nM [3H]-nitrendipine, 60 min, 25° C. The method, then: [^3 H]-Nitrendipine binding assay was carried out according to the method described by G. T. Bolger, et al., Biochem. Biophys. Res. Comm., 104, 1604-1609, (1982). The reaction mixture contained rat cardiac microsomes (source of Ca^2+ channels), 0.5 nM [^3 H]-nitrendipine with or without potential displacer in Tris buffer. The mixture was incubated for 60 minutes at 25° C. and subsequently terminated by rapid filtration through a glass fiber-filter. Membrane-bound [^3 H]-nitrendipine trapped in the filter was quantitated by scintillation counting. The inhibitory concentration (IC50) of potential displacer which gives 50% displacement of the total specifically bound [^3 H]-nitrendipine is presented as a measure of the affinity of such compound for the Ca^2+ channel.

By IC50 is commonly meant the point on the concentration scale where inhibition reaches its midpoint. For the molecule `COC(=O)C1=C(C)NC(C)=C([N+](=O)[O-])C1c1ccoc1CCCCCN1CCN(c2ccccc2OC)CC1` (centres unmarked) [Example 1, 1,4-Dihydro-4-(2-{5-[4-(2-methoxyphenyl)-1-piperazinyl]pentyl}-3-furanyl)-2,6-dimethyl-5-nitro-3-pyridinecarboxylic acid, methyl ester], the figures for the IC50 in assay [1] and in assay [3] were 0.13 µM and 0.6 µM, respectively. Besides, in assay [2], the EC50 stood at 5 µM. In addition, the Emax in assay [2] worked out at 188%.

`COC(=O)C1=C(C)NC(C)=C([N+](=O)[O-])C1c1ccccc1OCCCCCN1CCC(c2ccccc2)CC1` (centres unmarked) [Example 6] yielded an IC50 in assay [1] of 0.9 µM. Also, in assay [2], the EC50 stood at 2 µM and the Emax is 207%. Further, the IC50 in assay [3] came to 0.36 µM.

For `CC1=C(C(=O)OCCN2CCN(c3ncccn3)CC2)C(c2cccs2)C([N+](=O)[O-])=C(C)N1` (centres unmarked) [Example 73], the IC50 in assay [1] amounted to 4.9 µM; in assay [3], 2.4 µM. This molecule registered an EC50 in assay [2] of 0.98 µM. In assay [2], the Emax came out at 84%.

For the molecule `CC1=C(C(=O)OCCCCN2CCN(c3ncccn3)CC2)C(c2ccco2)C([N+](=O)[O-])=C(C)N1` (centres unmarked) [Example 70, 4-(2-Furanyl)-1,4-dihydro-2,6-dimethyl-5-nitro-3-pyridinecarboxylic acid, {4-[4-(2-pyrimidinyl)-1-piperazinyl]butyl} ester], the IC50 in assay [1] was determined as 0.84 µM. In addition, in assay [2], the EC50 was determined as 5 µM and the Emax was determined as 132%. In addition, in assay [3], the IC50 came to 2 µM.

In turn, `COc1ccccc1N1CCN(CCCCOC(=O)C2=C(C)NC(C)=C([N+](=O)[O-])C2c2ccco2)CC1` (centres unmarked) [Example 69] returned an IC50 in assay [1] of 0.035 µM. Moreover, in assay [2], the EC50 came out at 62 µM and the Emax was 60%. The IC50 in assay [3] came to 2 µM.

As to `COc1ccccc1N1CCN(CCOC(=O)C2=C(C)NC(C)=C([N+](=O)[O-])C2c2ccco2)CC1` (centres unmarked) [Example 59], the IC50 in assay [1] amounted to 0.1 µM. Besides, in assay [2], the EC50 was 2.7 µM and the Emax came to 98%. In addition, the IC50 in assay [3] was found to be 1.5 µM.

For `CC1=C(C(=O)OCCCCN2CCN(c3ncccn3)CC2)C(c2cccnc2)C([N+](=O)[O-])=C(C)N1` (centres unmarked) [Example 53, 1,4-Dihydro-2,6-dimethyl-5-nitro-4-(3-pyridinyl)-3-pyridinecarboxylic acid: {4-[4-(2-pyrimidinyl)-1-piperazinyl]butyl} ester], in assay [1], the IC50 is 0.4 µM. In assay [2], the EC50 amounted to 25 µM and the Emax turned out to be 189%. For the same molecule, the IC50 in assay [3] worked out at 4.4 µM.

The molecule `CC1=C(C(=O)OCCCCN2CCN(c3ncccn3)CC2)C(c2ccsc2)C([N+](=O)[O-])=C(C)N1` (centres unmarked) [Example 72] yielded an IC50 in assay [1] of 1 µM. Also, in assay [2], the EC50 is 12 µM and the Emax turned out to be 70%. For the same molecule, in assay [3], the IC50 was 1.6 µM.

On to `COC(=O)C1=C(C)NC(C)=C([N+](=O)[O-])C1c1ccccc1OCCCCCN1CCN(C(=O)C2COc3ccccc3O2)CC1` (centres unmarked) [Example 9], for which, in assay [1], the IC50 worked out at 5.2 µM. In addition, in assay [2], the EC50 was determined as 53 µM and the Emax worked out at 62%. Moreover, the IC50 in assay [3] was found to be 0.95 µM.

With `COc1ccccc1N1CCN(CCCCOC(=O)C2=C(C)NC(C)=C([N+](=O)[O-])C2c2cccn2C)CC1` (centres unmarked) [Example 57, 1,4-Dihydro-2,6-dimethyl-4-(1-methyl-1H-pyrrol-2-yl)-5-nitro-3-pyridinecarboxylic acid, {4-[4-(2-methoxyphenyl)1-piperazinyl]butyl} ester], the values for the IC50 in assay [1] and in assay [3] were 0.033 µM and 1.3 µM, respectively. Moreover, the EC50 in assay [2] is 2.3 µM. Moreover, the Emax in assay [2] was 110%.

With `CC1=C(C(=O)OCCN2CCN(c3ncccn3)CC2)C(c2ccsc2)C([N+](=O)[O-])=C(C)N1` (centres unmarked) [Example 66, 1,4-Dihydro-2,6-dimethyl-5-nitro-4-(3-thienyl)-3-pyridinecarboxylic acid, {2-[4-(2-pyrimidinyl)-1-piperazinyl]ethyl} ester], the IC50 came to 6 µM in assay [1] and 0.95 µM in assay [3]. Also, the EC50 in assay [2] is 0.85 µM. For the same molecule, the Emax in assay [2] turned out to be 210%.

In assay [1], `COC(=O)C1=C(C)NC(C)=C([N+](=O)[O-])C1c1ccccc1OCCCCCN1CCN(c2cnccn2)CC1` (centres unmarked) [Example 10] yielded an IC50 of 7.2 µM. For the same molecule, in assay [2], the EC50 turned out to be 2.8 µM and the Emax came to 55%. Besides, the IC50 in assay [3] was determined as 1.2 µM.

In assay [1], `COC(=O)C1=C(C)NC(C)=C([N+](=O)[O-])C1c1ccccc1OCCCCCN1CCN(c2ccc(OC(C)C)nn2)CC1` (centres unmarked) [Example 8] returned an IC50 of 15 µM. In assay [2], the EC50 is 15 µM and the Emax turned out to be 113%. Also, the IC50 in assay [3] was 0.58 µM.

Regarding `COC(=O)C1=C(C)NC(C)=C([N+](=O)[O-])C1c1ccoc1CCCCCN1CCN(C(=O)c2ccco2)CC1` (centres unmarked) [Example 2], the IC50 in assay [1] amounted to 1.9 µM. In assay [2], the EC50 turned out to be 96 µM and the Emax worked out at 144%. Moreover, the half-inhibitory concentration (IC50) in assay [3] is 1.5 µM.

The molecule `CC1=C(C(=O)OCCN2CCN(c3ncccn3)CC2)C(c2cccc3nonc23)C([N+](=O)[O-])=C(C)N1` (centres unmarked) [Example 76] had an IC50 in assay [1] of 17 µM. Moreover, in assay [2], the EC50 was determined as 0.056 µM and the Emax was 156%. Further, the IC50 in assay [3] was determined as 0.085 µM.

On to `COc1ccccc1N1CCN(CCCCOC(=O)C2=C(C)NC(C)=C([N+](=O)[O-])C2c2ccsc2)CC1` (centres unmarked) [Example 71], for which the figures for the IC50 in assay [1] and in assay [3] were 0.078 µM and 1.7 µM, respectively. Also, the Emax in assay [2] is 40%.

In turn, `CC1=C(C(=O)OCCCCN2CCN(c3ncccn3)CC2)C(c2ccoc2)C([N+](=O)[O-])=C(C)N1` (centres unmarked) [Example 68, 4-(3-Furanyl)-1,4-dihydro-2,6-dimethyl-5-nitro-3-pyridinecarboxylic acid, {4-[4-(2-pyrimidinyl)-1-piperazinyl]butyl} ester] came in with an IC50 in assay [1] of 0.85 µM. In addition, in assay [2], the EC50 is 3.7 µM and the Emax stood at 147%. Further, the IC50 in assay [3] was 2.7 µM.

Take `COc1ccccc1N1CCN(CCCCOC(=O)C2=C(C)NC(C)=C([N+](=O)[O-])C2c2cccnc2)CC1` (centres unmarked) [Example 52]: the IC50 in assay [1] amounted to 0.052 µM; in assay [3], 3.9 µM. In assay [2], the Emax was determined as 35%.

Regarding `COc1ccccc1N1CCN(CCOC(=O)C2=C(C)NC(C)=C([N+](=O)[O-])C2c2ccsc2)CC1` (centres unmarked) [Example 65, 1,4-Dihydro-2,6-dimethyl-5-nitro-4-(3-thienyl)-3-pyridinecarboxylic acid, {2-[4-(2-methoxyphenyl)-1-piperazinyl]ethyl} ester], the IC50 is 0.18 µM in assay [1] and 0.86 µM in assay [3]. Further, in assay [2], the EC50 was found to be 1 µM. For the same molecule, the Emax in assay [2] was 225%.

Regarding `CC1=C(C(=O)OCCN2CCN(c3ncccn3)CC2)C(c2cccn2C)C([N+](=O)[O-])=C(C)N1` (centres unmarked) [Example 78, 1,4-Dihydro-2,6-dimethyl-4-(1-methyl-1H-pyrrol-2-yl)-5-nitro-3-pyridinecarboxylic acid, {2-[4-(2-pyrimidinyl)-1-piperazinyl]ethyl} ester], in assay [1], the IC50 is 3.3 µM. In addition, in assay [2], the EC50 is 0.58 µM and the Emax is 231%. Further, the IC50 in assay [3] amounted to 1.7 µM.

In the case of `COC(=O)C1=C(C)NC(C)=C([N+](=O)[O-])C1c1ccccc1OCCCCCN1CCN(c2ccc(Cl)nn2)CC1` (centres unmarked) [Example 7], the IC50 in assay [1] was 1.9 µM. In assay [2], the EC50 came to 12 µM and the Emax came to 149%. Besides, in assay [3], the IC50 amounted to 0.65 µM.

For `COC(=O)C1=C(C)NC(C)=C([N+](=O)[O-])C1c1ccccc1S(=O)(=O)CCCCN1CCN(c2ccccc2OC)CC1` (centres unmarked) [Example 3], the IC50 in assay [1] was found to be 0.063 µM; in assay [3], 0.24 µM. The molecule further showed an EC50 in assay [2] of 1 µM. For the same molecule, in assay [2], the Emax amounted to 89%.

In the case of `CC1=C(C(=O)OCCCCN2CCN(c3ncccn3)CC2)C(c2cccs2)C([N+](=O)[O-])=C(C)N1` (centres unmarked) [Example 64], the IC50 in assay [1] and in assay [3] was 1.2 µM throughout. Further, the EC50 in assay [2] stood at 3.4 µM. Also, the Emax in assay [2] is 76%.

In assay [1], `COc1ccccc1N1CCN(CCCCOC(=O)C2=C(C)NC(C)=C([N+](=O)[O-])C2c2cccs2)CC1` (centres unmarked) [Example 63] yielded an IC50 of 0.06 µM. In addition, in assay [2], the EC50 came out at 12 µM and the Emax came to 75%. For the same molecule, in assay [3], the IC50 came out at 2.2 µM.

The molecule `COc1ccccc1N1CCN(CCOC(=O)C2=C(C)NC(C)=C([N+](=O)[O-])C2c2cccc3nonc23)CC1` (centres unmarked) [Example 75] gave an IC50 in assay [1] of 0.47 µM. In addition, in assay [2], the EC50 came to 0.4 µM and the Emax worked out at 82%. Moreover, the IC50 in assay [3] came to 0.085 µM.
